Test results as given in the supplement of paper PMC4862054.

Columns and labels:
Assay in all cases: normalised response (% of control), CellTox Green; higher = less cell death (100 = DMSO, 0 = benzethonium chloride kill control)
Conditions in all cases: incubation time: 72 h
[1] = tested on: HDQ-P1
How it was run: (§1)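 Normalised signals at single concentrations make up the values. They come from breast cancer cell lines seeded (20 µl suspension) into 384-well plates with compound at 5 concentrations in 10-fold steps over a compound-specific 10,000-fold range, incubated 72 h, and read for CellTox Green fluorescence then CellTiter-Glo luminescence. Each plate was normalised to 0.1 % DMSO (100) and a positive kill control (0).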

[2] = tested on: MFM-223
How it was run: as §1

[3] = tested on: DU-4475
How it was run: as §1

[4] = tested on: CAL-51
How it was run: as §1

[5] = tested on: BT-474
How it was run: as §1

[6] = tested on: MDA-MB-468
How it was run: as §1

[7] = tested on: CAL-85-1
How it was run: as §1

[8] = tested on: HCC1937
How it was run: as §1

[9] = tested on: BT-549
How it was run: as §1

[10] = tested on: MDA-MB-231
How it was run: as §1

[11] = tested on: HCC1599
How it was run: as §1

[12] = tested on: HCC1143
How it was run: as §1

[13] = tested on: CAL-148
How it was run: as §1

[14] = tested on: Hs578T
How it was run: as §1

[15] = tested on: MDA-MB-436
How it was run: as §1

[16] = tested on: MCF-10A
How it was run: as §1

[17] = tested on: MDA-MB-453
How it was run: as §1

[18] = tested on: CAL-120
How it was run: as §1

Structure (SMILES)	normalised response [1]	normalised response [2]	normalised response [3]	normalised response [4]	normalised response [5]	normalised response [6]	normalised response [7]	normalised response [8]	normalised response [9]	normalised response [10]	normalised response [11]	normalised response [12]	normalised response [13]	normalised response [14]	normalised response [15]	normalised response [16]	normalised response [17]	normalised response [18]
OC[C@H]1O[C@@H](n2cnc3c2N=CNC[C@H]3O)C[C@@H]1O [Pentostatin] (10000 nM)	101%	90.8%	97.4%	102%	103%	112%	85.2%	103%	88.3%	118%	95.2%	110%	102%	103%	97.6%	103%	104%	104%
C=CCNC1=C2C[C@@H](C)C[C@H](OC)[C@H](O)[C@@H](C)/C=C(\C)[C@H](OC(N)=O)[C@@H](OC)/C=C\C=C(/C)C(=O)NC(=CC1=O)C2=O [Tanespimycin] (1000 nM)	60.1%	98.9%	62.4%	48.8%	76.9%	121%	68.2%	120%	99.8%	36.8%	95.6%	91.2%	28.2%	98.9%	24.3%	31.3%	93.3%	94.5%
C=CCNC1=C2C[C@@H](C)C[C@H](OC)[C@H](O)[C@@H](C)/C=C(\C)[C@H](OC(N)=O)[C@@H](OC)/C=C\C=C(/C)C(=O)NC(=CC1=O)C2=O [Tanespimycin] (10000 nM)	55.1%	86%	69%	58.7%	62.6%	100%	75.6%	102%	109%	15.4%	108%	52.5%	39.8%	61.2%	99.4%	39.1%	87.4%	84.2%
CO[C@H]1C[C@@H]2CC[C@@H](C)[C@@](O)(O2)C(=O)C(=O)N2CCCC[C@H]2C(=O)O[C@H]([C@H](C)C[C@@H]2CC[C@@H](OC(=O)C(C)(CO)CO)[C@H](OC)C2)CC(=O)[C@H](C)/C=C(\C)[C@@H](O)[C@@H](OC)C(=O)[C@H](C)C[C@H](C)/C=C/C=C/C=C/1C [Temsirolimus] (100 nM)	109%	90.9%	98.8%	103%	91.2%	149%	80%	110%	130%	123%	106%	130%	87.2%	-18.9%	97.1%	91.2%	107%	102%
C[C@]1(c2nc3c(C(N)=O)cccc3[nH]2)CCCN1 [Veliparib] (1000 nM)	99%	98.1%	99%	100%	103%	139%	90%	120%	129%	116%	105%	64.8%	105%	91.6%	91.3%	106%	106%	102%
CC[C@]1(O)C[C@@H]2CN(CCc3c([nH]c4ccccc34)[C@@](C(=O)OC)(c3cc4c(cc3OC)N(C)[C@H]3[C@@](O)(C(=O)OC)[C@H](OC(C)=O)[C@]5(CC)C=CCN6CC[C@]43[C@@H]65)C2)C1 [Vinblastine] (100 nM)	96.8%	54.7%	93.8%	32.1%	67.5%	19.1%	61.1%	-65.7%	66.2%	28.5%	78.4%	56.7%	75.2%	-12.8%	88.4%	46%	103%	88.2%
CC[C@]1(O)C[C@@H]2CN(CCc3c([nH]c4ccccc34)[C@@](C(=O)OC)(c3cc4c(cc3OC)N(C)[C@H]3[C@@](O)(C(=O)OC)[C@H](OC(C)=O)[C@]5(CC)C=CCN6CC[C@]43[C@@H]65)C2)C1 [Vinblastine] (1000 nM)	101%	51.2%	95.5%	20.7%	75.3%	70.2%	85.4%	92.1%	61.4%	19.5%	75.5%	34.2%	89.4%	-39.7%	83.1%	50.5%	96.5%	89.8%
CS(=O)(=O)c1ccc(C(=O)Nc2ccc(Cl)c(-c3ccccn3)c2)c(Cl)c1 [Vismodegib] (10000 nM)	113%	98%	100%	102%	102%	226%	138%	84.1%	119%	94.1%	98.8%	76.7%	105%	82.8%	85.5%	85.5%	80.9%	100%
